# Laboratory results published in PubChem BioAssay (NCI).
#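 Following 48 hours of exposure in 96-well plates, responses at five concentrations were used to interpolate endpoints linearly. The concentration for 50% growth inhibition is given as GI50. TGI marks complete inhibition of growth.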
# What was measured:
# Assay in all cases: NCI tumour cell line growth inhibition, 48 h
# HOP-18 NSCLC = tested on: HOP-18 NSCLC
# LXFL 529 NSCLC = tested on: LXFL 529 NSCLC
# XF 498 CNS = tested on: XF 498 CNS
# RXF-631 renal = tested on: RXF-631 renal
# NCI/ADR-RES ovarian = tested on: NCI/ADR-RES ovarian
# P388 leukemia = tested on: P388 leukemia
# SN12K1 renal = tested on: SN12K1 renal
Structure (SMILES),TGI (HOP-18 NSCLC),TGI (LXFL 529 NSCLC),TGI (XF 498 CNS),TGI (RXF-631 renal),further results
Cc1ccc(NC(=O)C(=O)C(C#N)c2ccccc2C)cc1C (centres undefined),> 100 µM,> 100 µM,> 100 µM,–,–
N#C/C(=C\c1ccc(O)c(O)c1)C(N)=S,> 100 µM,> 100 µM,> 100 µM,–,–
CC1SC2=NC3=C(c4ccccc4C3=O)C(c3ccc(F)cc3)N2C1=O (centres undefined),–,> 100 µM,> 100 µM,–,–
O=C(N/C(=C\c1ccc2c(c1)OCO2)c1nc2ccccc2[nH]1)c1ccccc1,> 100 µM,97.4 µM,34 µM,–,–
COc1cc(C(=O)C/C(CCCC(=O)Nc2ccccc2[N+](=O)[O-])=N/NC(=O)c2cc3ccccc3cc2O)ccc1O,> 100 µM,–,> 100 µM,> 100 µM,–
COC(C(=O)[O][Ge]([CH3])([CH3])[CH3])c1ccccc1 (centres undefined),–,> 100 µM,–,> 100 µM,GI50 (LXFL 529 NSCLC): > 100000 nM; GI50 (RXF-631 renal): > 100000 nM
Cc1c(C(=O)C/C(=N\O)C(=O)Nc2cc(Cl)c(Cl)cc2Cl)[n+](=O)c2ccccc2n1[O-],82.4 µM,30.8 µM,46.8 µM,–,–
CCN(CC)c1ccc(C(=O)c2ccccc2C(=O)O)c(O)c1,–,> 100 µM,> 100 µM,–,–
COc1ccc(C2=Nc3ccccc3NC(=O)C2)cc1,> 100 µM,> 100 µM,36.8 µM,> 100 µM,–
Cc1cc(N(CCC#N)CCC#N)ccc1N=Nc1cccc(C(=O)O)c1,> 100 µM,> 100 µM,> 100 µM,> 100 µM,–
CCCNC1=C(C(=O)OCC)C(=O)CO1,–,> 100 µM,> 100 µM,> 100 µM,–
CCCCCCCCCCCC(=O)OCC1OC(n2cc(F)c(=O)[nH]c2=O)C(NC(=O)OCc2ccccc2)C(OC(=O)CCCCCCCCCCC)C1O (centres undefined),> 100 µM,> 100 µM,> 100 µM,> 100 µM,–
CCc1ccccc1NC(=O)C(=O)CC(=O)c1sc(Nc2ccccc2)nc1C,> 100 µM,> 100 µM,> 100 µM,> 100 µM,–
Cc1[nH]ccc2c1[nH]c1cc(=O)ccc12,> 100 µM,> 100 µM,> 100 µM,> 100 µM,–
CC1=C(C)C(=O)c2c(cc3ccccn23)C1=O,68.2 µM,28.6 µM,–,21.7 µM,–
C/C(=N\NS(=O)(=O)c1ccccc1)c1ccc(Cl)c(Cl)c1,> 100 µM,> 100 µM,> 100 µM,–,–
CC1=C(Oc2ccccc2)C(CCC(=O)O)c2c(O)cc(Cl)c(O)c21 (centres undefined),–,–,> 100 µM,> 100 µM,–
Nc1ccn(CCNCCn2cnc3nc(N)[nH]c(=O)c32)c(=O)n1,> 100 µM,> 100 µM,> 100 µM,> 100 µM,–
CC(=O)OCC1OC(OC2C(CSC3OC(COC(C)=O)C(OC(C)=O)C(OC(C)=O)C3OC(C)=O)OC(OC(C)=O)C(OC(C)=O)C2OC(C)=O)C(OC(C)=O)C(OC(C)=O)C1OC(C)=O (centres undefined),–,> 100 µM,> 100 µM,–,–
CC1(C)C(=NNC(=O)C[N+](C)(C)C)C(C)(C)C1=NNC(=O)C[N+](C)(C)C,> 100 µM,> 100 µM,> 100 µM,> 100 µM,–
CCOc1ccc(NC(=O)C(=O)CC(=O)C2=C(C)Nc3ccccc3S2)cc1,> 50 µM,–,> 50 µM,> 50 µM,–
CC1=Nc2ccccc2S/C1=C(/C)NNC(=O)C(N)=O,> 100 µM,> 100 µM,> 100 µM,–,–
COc1ccc2nc(-c3cccs3)cc(C(O)CN3CCSCC3)c2c1 (centres undefined),54.7 µM,91.8 µM,32.1 µM,–,–
CCOC(=O)COc1ccccc1/C=C1\CCC(CN(C)C)C1=O (centres undefined),37.9 µM,6.36 µM,–,34.4 µM,TGI (NCI/ADR-RES ovarian): > 44 µM; TGI (P388 leukemia): 1540 nM; TGI (SN12K1 renal): 3.47 µM
O=C(CN1CCOCC1)Nc1nc(-c2ccc(Cl)cc2)cs1,> 100 µM,–,26.9 µM,–,–
C=CCC[CH2][Sn]([c]1ccccc1)([c]1ccccc1)[c]1ccccc1,4.51 µM,2.63 µM,3.55 µM,3.53 µM,GI50 (HOP-18 NSCLC): 2590 nM; GI50 (LXFL 529 NSCLC): 1350 nM; GI50 (RXF-631 renal): 1850 nM; GI50 (XF 498 CNS): 2080 nM
